Converted amounts (≈) assume the structure as drawn.
Legend:
Staphylococcus aureus [1] = assay: Antibacterial activity against methicillin-sensitive Staphylococcus aureus ATCC 29213 by agar dilution method; type: functional
Staphylococcus aureus [2] = assay: Antibacterial activity against methicillin-resistant Staphylococcus aureus 09-13 by agar dilution method; type: functional
[3] = test system: Staphylococcus epidermidis; assay: Antibacterial activity against methicillin-sensitive Staphylococcus epidermidis ATCC 12228 by agar dilution method; type: functional
[4] = test system: Staphylococcus epidermidis; assay: Antibacterial activity against methicillin-resistant Staphylococcus epidermidis 09-3 by agar dilution method; type: functional
Enterococcus faecalis [5] = assay: Antibacterial activity against vancomycin-sensitive Enterococcus faecalis ATCC 29212 by agar dilution method; type: functional
Enterococcus faecalis [6] = assay: Antibacterial activity against vancomycin-resistant Enterococcus faecalis 09-9 by agar dilution method; type: functional
Enterococcus faecium [7] = assay: Antibacterial activity against vancomycin-resistant Enterococcus faecium ATCC 700221 by agar dilution method; type: functional
Escherichia coli [8] = assay: Antibacterial activity against extended-spectrum beta-lactamase-negative Escherichia coli ATCC 25922 by agar dilution method; type: functional
Escherichia coli [9] = assay: Antibacterial activity against extended-spectrum beta-lactamase-positive Escherichia coli 09-1 by agar dilution method; type: functional
Klebsiella pneumoniae [10] = assay: Antibacterial activity against extended-spectrum beta-lactamase-negative Klebsiella pneumoniae 7 by agar dilution method; type: functional
Klebsiella pneumoniae [11] = assay: Antibacterial activity against extended-spectrum beta-lactamase-positive Klebsiella pneumoniae 09-25 by agar dilution method; type: functional
Klebsiella pneumoniae [12] = assay: Antibacterial activity against Klebsiella pneumoniae ATCC BAA-2146 expressing NDM-1 by agar dilution method; type: functional
[13] = Cytotoxicity against HEK293T cells after 48 hrs by MTS assay; type: cell-based, HEK-293T; conditions: human
Enterococcus faecium [14] = assay: Antibacterial activity against vancomycin-sensitive Enterococcus faecium 09-10 by agar dilution method; type: functional
Staphylococcus aureus [15] = assay: Antibacterial activity against methicillin-resistant Staphylococcus aureus ATCC 33591 by agar dilution method; type: functional
Staphylococcus aureus [16] = assay: Antibacterial activity against methicillin-sensitive Staphylococcus aureus 15 by agar dilution method; type: functional
Staphylococcus aureus [17] = assay: Antibacterial activity against methicillin-sensitive Staphylococcus aureus 09-6 by agar dilution method; type: functional
[18] = test system: Staphylococcus epidermidis; assay: Antibacterial activity against methicillin-sensitive Staphylococcus epidermidis 09-9 by agar dilution method; type: functional
Enterococcus faecalis [19] = assay: Antibacterial activity against vancomycin-resistant Enterococcus faecalis ATCC 51299 by agar dilution method; type: functional
Enterococcus faecalis [20] = assay: Antibacterial activity against vancomycin-sensitive Enterococcus faecalis 09-8 by agar dilution method; type: functional
Enterococcus faecium [21] = assay: Antibacterial activity against vancomycin-resistant Enterococcus faecium 05-8 by agar dilution method; type: functional
Escherichia coli [22] = assay: Antibacterial activity against extended-spectrum beta-lactamase-negative Escherichia coli 1515 by agar dilution method; type: functional
Escherichia coli [23] = assay: Antibacterial activity against extended-spectrum beta-lactamase-negative Escherichia coli 09-20 by agar dilution method; type: functional
Klebsiella pneumoniae [24] = assay: Antibacterial activity against extended-spectrum beta-lactamase-positive Klebsiella pneumoniae ATCC 700603 by agar dilution method; type: functional
Klebsiella pneumoniae [25] = assay: Antibacterial activity against extended-spectrum beta-lactamase-negative Klebsiella pneumoniae 09-8 by agar dilution method; type: functional
Pseudomonas aeruginosa [26] = assay: Antibacterial activity against Pseudomonas aeruginosa ATCC 27853 by agar dilution method; type: functional
Pseudomonas aeruginosa [27] = assay: Antibacterial activity against Pseudomonas aeruginosa PAO1 by agar dilution method; type: functional
Pseudomonas aeruginosa [28] = assay: Antibacterial activity against Pseudomonas aeruginosa 09-14 by agar dilution method; type: functional
[29] = test system: Acinetobacter calcoaceticus; assay: Antibacterial activity against Acinetobacter calcoaceticus ATCC 19606 by agar dilution method; type: functional
Enterobacter cloacae = assay: Antibacterial activity against Enterobacter cloacae 45301 by agar dilution method; type: functional
Klebsiella aerogenes = assay: Antibacterial activity against Enterobacter aerogenes 45102 by agar dilution method; type: functional
Serratia marcescens = assay: Antibacterial activity against Serratia marcescens 41002 by agar dilution method; type: functional
Morganella morganii = assay: Antibacterial activity against Morganella morganii ATCC 25830 by agar dilution method; type: functional
Providencia rettgeri = assay: Antibacterial activity against Providencia rettgeri ATCC 31052 by agar dilution method; type: functional
Proteus vulgaris = assay: Antibacterial activity against Proteus vulgaris ATCC 29905 by agar dilution method; type: functional
Proteus mirabilis = assay: Antibacterial activity against Proteus mirabilis 09-1 by agar dilution method; type: functional
Salmonella typhi = assay: Antibacterial activity against Salmonella typhi H901 by agar dilution method; type: functional, Salmonella enterica subsp. enterica serovar Typhi; conditions: Salmonella enterica
Citrobacter freundii = assay: Antibacterial activity against Citrobacter freundii ATCC 43864 by agar dilution method; type: functional

Row | SMILES | MIC (Staphylococcus aureus [1]) | MIC (Staphylococcus aureus [2]) | MIC [3] | MIC [4] | MIC (Enterococcus faecalis [5]) | MIC (Enterococcus faecalis [6]) | MIC (Enterococcus faecium [7]) | MIC (Escherichia coli [8]) | MIC (Escherichia coli [9]) | MIC (Klebsiella pneumoniae [10]) | MIC (Klebsiella pneumoniae [11]) | MIC (Klebsiella pneumoniae [12]) | CC50 at 48 h [13] | MIC (Enterococcus faecium [14]) | MIC (Staphylococcus aureus [15]) | MIC (Staphylococcus aureus [16]) | MIC (Staphylococcus aureus [17]) | MIC [18] | MIC (Enterococcus faecalis [19]) | MIC (Enterococcus faecalis [20]) | also measured
1 | N=C(c1ccc2cc(-c3ccc(Oc4ccc(-c5cc6ccc(C(=N)N7CCOCC7)cc6[nH]5)cc4)cc3)[nH]c2c1)N1CCOCC1 | 2 µg/mL (≈ 3.2 µM) | 2 µg/mL (≈ 3.2 µM) | 2 µg/mL (≈ 3.2 µM) | 2 µg/mL (≈ 3.2 µM) | 8 µg/mL (≈ 12.8 µM) | 16 µg/mL (≈ 25.6 µM) | 2 µg/mL (≈ 3.2 µM) | 32 µg/mL (≈ 51.2 µM) | 128 µg/mL (≈ 205 µM) | > 128 µg/mL | > 128 µg/mL | > 128 µg/mL | 4.9 µg/mL (≈ 7.84 µM) | 4 µg/mL (≈ 6.4 µM) | 2 µg/mL (≈ 3.2 µM) | 1 µg/mL (≈ 1.6 µM) | 2 µg/mL (≈ 3.2 µM) | 2 µg/mL (≈ 3.2 µM) | 4 µg/mL (≈ 6.4 µM) | 8 µg/mL (≈ 12.8 µM) | MIC (Enterococcus faecium [21]): 8 µg/mL (≈ 12.8 µM); MIC (Escherichia coli [22]): 128 µg/mL (≈ 205 µM); MIC (Escherichia coli [23]): 64 µg/mL (≈ 102 µM); MIC (Klebsiella pneumoniae [24]): > 128 µg/mL; MIC (Klebsiella pneumoniae [25]): > 128 µg/mL; MIC (Pseudomonas aeruginosa [26]): > 128 µg/mL; MIC (Pseudomonas aeruginosa [27]): > 128 µg/mL; MIC (Pseudomonas aeruginosa [28]): > 128 µg/mL; MIC [29]: > 128 µg/mL; MIC (Enterobacter cloacae): > 128 µg/mL; MIC (Klebsiella aerogenes): > 128 µg/mL; MIC (Serratia marcescens): > 128 µg/mL; MIC (Morganella morganii): 16 µg/mL (≈ 25.6 µM); MIC (Providencia rettgeri): > 128 µg/mL; MIC (Proteus vulgaris): > 128 µg/mL; MIC (Proteus mirabilis): > 128 µg/mL; MIC (Salmonella typhi): 64 µg/mL (≈ 102 µM); MIC (Citrobacter freundii): > 128 µg/mL
2 | N=C(c1ccc2cc(-c3ccc(Oc4ccc(-c5cc6ccc(C(=N)N7CCC(N8CCCC8)CC7)cc6[nH]5)cc4)cc3)[nH]c2c1)N1CCC(N2CCCC2)CC1 | 8 µg/mL (≈ 10.5 µM) | 8 µg/mL (≈ 10.5 µM) | 3 to 8 µg/mL (≈ 3.95 to 10.5 µM) | 8 µg/mL (≈ 10.5 µM) | 8 µg/mL (≈ 10.5 µM) | 16 µg/mL (≈ 21.1 µM) | 8 µg/mL (≈ 10.5 µM) | 32 µg/mL (≈ 42.2 µM) | 64 µg/mL (≈ 84.3 µM) | 128 µg/mL (≈ 169 µM) | 128 µg/mL (≈ 169 µM) | 128 µg/mL (≈ 169 µM) | 1.1 µg/mL (≈ 1.45 µM) | 8 µg/mL (≈ 10.5 µM) | 8 µg/mL (≈ 10.5 µM) | 8 µg/mL (≈ 10.5 µM) | 8 µg/mL (≈ 10.5 µM) | 8 µg/mL (≈ 10.5 µM) | 8 µg/mL (≈ 10.5 µM) | 8 µg/mL (≈ 10.5 µM) | MIC (Enterococcus faecium [21]): 8 µg/mL (≈ 10.5 µM); MIC (Escherichia coli [22]): 64 µg/mL (≈ 84.3 µM); MIC (Escherichia coli [23]): 32 µg/mL (≈ 42.2 µM); MIC (Klebsiella pneumoniae [24]): > 128 µg/mL; MIC (Klebsiella pneumoniae [25]): 128 µg/mL (≈ 169 µM); MIC (Pseudomonas aeruginosa [26]): > 128 µg/mL; MIC (Pseudomonas aeruginosa [27]): > 128 µg/mL; MIC (Pseudomonas aeruginosa [28]): > 128 µg/mL; MIC [29]: > 128 µg/mL; MIC (Enterobacter cloacae): 64 µg/mL (≈ 84.3 µM); MIC (Klebsiella aerogenes): 128 µg/mL (≈ 169 µM); MIC (Serratia marcescens): > 128 µg/mL; MIC (Morganella morganii): 128 µg/mL (≈ 169 µM); MIC (Providencia rettgeri): > 128 µg/mL; MIC (Proteus vulgaris): > 128 µg/mL; MIC (Proteus mirabilis): > 128 µg/mL; MIC (Salmonella typhi): 32 µg/mL (≈ 42.2 µM); MIC (Citrobacter freundii): > 128 µg/mL
